Source: US20230080054A1 (ILDONG PHARMACEUTICAL CO., LTD., priority 2021, published 2023)

Molecular target: T1, human ANO6 (Homo sapiens, UniProt Q4KMQ2)
T1 construct: expressed in transfected cells
T1 sequence (Q4KMQ2 1-931 isoform Q4KMQ2-2): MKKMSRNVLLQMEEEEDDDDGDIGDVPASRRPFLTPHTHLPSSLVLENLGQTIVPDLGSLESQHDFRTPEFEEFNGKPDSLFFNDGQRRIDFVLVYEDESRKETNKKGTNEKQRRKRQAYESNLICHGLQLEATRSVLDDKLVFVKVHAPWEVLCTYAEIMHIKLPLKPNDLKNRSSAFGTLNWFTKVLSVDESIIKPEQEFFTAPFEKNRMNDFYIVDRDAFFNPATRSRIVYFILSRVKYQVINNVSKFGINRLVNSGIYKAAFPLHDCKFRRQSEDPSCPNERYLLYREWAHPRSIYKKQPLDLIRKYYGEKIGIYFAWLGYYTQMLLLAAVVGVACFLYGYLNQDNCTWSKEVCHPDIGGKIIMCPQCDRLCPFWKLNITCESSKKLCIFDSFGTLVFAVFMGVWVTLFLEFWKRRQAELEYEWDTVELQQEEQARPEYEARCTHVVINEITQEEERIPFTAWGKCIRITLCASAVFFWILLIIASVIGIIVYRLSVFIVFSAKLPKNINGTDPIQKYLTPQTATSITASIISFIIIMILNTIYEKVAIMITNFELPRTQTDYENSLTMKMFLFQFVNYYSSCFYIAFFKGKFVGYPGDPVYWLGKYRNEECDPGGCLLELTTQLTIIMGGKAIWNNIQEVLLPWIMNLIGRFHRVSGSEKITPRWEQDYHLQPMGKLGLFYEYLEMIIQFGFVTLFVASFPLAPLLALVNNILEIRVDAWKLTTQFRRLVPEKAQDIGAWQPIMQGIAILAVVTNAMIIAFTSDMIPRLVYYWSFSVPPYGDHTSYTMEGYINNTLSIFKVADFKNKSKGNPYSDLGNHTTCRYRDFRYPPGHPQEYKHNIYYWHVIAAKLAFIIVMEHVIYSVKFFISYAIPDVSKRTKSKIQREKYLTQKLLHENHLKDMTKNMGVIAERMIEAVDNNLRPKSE
Experiment: YFP quenching assay (ANO6 ion channel activity)
Type: cell-based
Conditions: 10 μM ionomycin; for inhibition at 1 µM: test compound 1 μM, read-out: Inhibition Level 1 μM; for inhibition at 30 µM: test compound 30 μM, read-out: Inhibition Level 30 μM
Excerpt: Example 3: YFP Quenching Assay
1. Materials and Instruments
Ionomycin (Alomonelab cat. #I-700), FLUOstar Omega microplate reader (BMG Labtech, Ortenberg, Germany), and MARS Data Analysis Software (BMG Labtech)
Fisher rat thyroid (FRT) cells stably expressing human ANO6 (GenBank accession no. NP_001191732.1, provided by J. H. Nam, Dongguk University College of Medicine, Korea) and halide sensor mutant YFP-H148Q/I152L/F46L) were constructed and grown in Dulbecco's modified Eagle's medium Nutrient Mixture F-12 (DMEM/F-12) supplemented 10% FBS, 100 units/mL penicillin, 500 μg/mL hygromycin B and 100 μg/mL neomycin.
Fisher rat thyroid (FRT) cells stably expressing human ANO6 and halide sensor mutant YFP (H148Q/I152L/F46L) were seeded in black walled 96 well plates and incubated in a 37° C., 5% CO2 incubator to reach about 100% cell confluency. Then, each well of the 96 well plates were washed for several times with phosphate buffered saline (PBS), and 50 μL of PBS was added to each well. Test compounds (100× in DMSO) were added to each well to be 1% v/v DMSO. After incubation for 10 minutes in 40° C., the 96 well plates were transferred to a plate reader, and YFP fluorescence changed by SCN-introduced into cells through activated ANO6 were measured by the following steps.
(1) YFP fluorescence signals were recorded in every 0.4 seconds.
(2) Basal YFP fluorescence signals were recorded for 1 second.
(3) 140 mM SCN-(50 μL) containing 10 μM ionomycin was injected to each well, and YFP fluorescence signals were recorded.
The inhibitory activity (%) of each of the test compounds was obtained by the following steps.
(1) Background signals were subtracted from recording values, and the resulting values were converted to relative percentages. The values at 0 second were set to be 100%.
(2) Differences between the values at 3.6 seconds and those of at 7.6 seconds were calculated.
(3) In each row of 96 well plate, the inhibitory activity of each of the test compounds was calculated as percentages. The inhibitory activity of a negative control group to which neither compounds nor ionomycin were treated was set to be 100%, and the inhibitory activity of a positive control group to which ionomycin was treated and compounds were not treated was set to be 0%.
(4) The assay was performed in duplicate or triplicate, and the results were averaged.

SMILES	inhibition at 1 µM	inhibition at 30 µM
Cc1cnnc(Nc2cccc(C(=O)NCc3ccc(C)o3)c2)c1 [Compound 42, N-[(5-methylfuran-2-yl)methyl]-3-[(5-methylpyridazin-3-yl)amino]benzamide]	–	< 30%
Cc1ccc(CNC(=O)c2cccc(Nc3ncc(-c4cccc(C(=O)O)c4)cn3)c2)o1 [Compound 108, 3-{2-[(3-{[(5-methylfuran-2-yl)methyl]carbamoyl}phenyl)amino]pyrimidin-5-yl}benzoic acid]	< 30%	–
Cc1ccc(CNC(=O)c2cccc(Nc3ncc(-c4cccc(F)c4)cn3)c2)o1 [Compound A20]	< 30%	30 to 60%
O=C(NCCc1ccccc1)c1cccc(Nc2ncc(-c3cccc(F)c3)cn2)c1 [Compound A88]	30 to 60%	–
Cc1ccc(CNC(=O)c2cccc(Nc3cccnn3)c2)o1 [Compound 5, N-[(5-methylfuran-2-yl)methyl]-3-[(pyridazin-3-yl)amino]benzamide]	–	30 to 60%
O=C(NCC1CCCO1)c1cccc(Nc2ncc(-c3cccc(F)c3)cn2)c1 (stereo not drawn) [Compound A83]	30 to 60%	–
CCOC(=O)c1ccc(-c2cnc(Nc3cccc(C(=O)NCc4ccc(C)o4)c3)nc2)cc1 [Compound 102, ethyl 4-{2-[(3-{[(5-methylfuran-2-yl)methyl]carbamoyl}phenyl)amino]pyrimidin-5-yl}benzoate]	< 30%	–
Cc1ccc(CNC(=O)c2cccc(Nc3ccc(C(C)C)nn3)c2)o1 [Compound 85, N-[(5-methylfuran-2-yl)methyl]-3-{[6-(propan-2-yl)pyridazin-3-yl]amino}benzamide]	30 to 60%	–
Cc1ccc(CNC(=O)c2cccc(Nc3ncc(-c4ccc5c(c4)OCO5)cn3)c2)o1 [Compound 103, 3-{[5-(2H-1,3-benzodioxol-5-yl)pyrimidin-2-yl]amino}-N-[(5-methylfuran-2-yl)methyl]benzamide]	< 30%	–
Cc1ccc(CNC(=O)c2cccc(Nc3ncc(-c4cc5ccccc5o4)cn3)c2)o1 [Compound 111, 3-{[5-(1-benzofuran-2-yl)pyrimidin-2-yl]amino}-N-[(5-methylfuran-2-yl)methyl]benzamide]	< 30%	–
Cc1ccc(CNC(=O)c2cccc(Nc3ccc(-c4c(C)noc4C)nn3)c2)o1 [Compound 72, 3-{[6-(3,5-dimethyl-1,2-oxazol-4-yl)pyridazin-3-yl]amino}-N-[(5-methylfuran-2-yl)methyl]benzamide]	< 30%	–
O=C(NCCc1ccc2c(c1)OCO2)c1cccc(Nc2ncc(-c3ccccc3)cn2)c1 [Compound 106, N-[2-(2H-1,3-benzodioxol-5-yl)ethyl]-3-[(5-phenylpyrimidin-2-yl)amino]benzamide]	30 to 60%	–
Cc1ccc(CNC(=O)c2cccc(Nc3ncc(-c4ccc(F)cc4)cn3)c2)o1 [Compound A19]	–	30 to 60%
Cc1cccc(-c2cnc(Nc3cccc(C(=O)NCc4ccc(C)o4)c3)nc2)c1 [Compound A18]	30 to 60%	30 to 60%
COc1ccc(-c2ccc(Nc3cccc(C(=O)NCc4ccc(C)o4)c3)nn2)cc1 [Compound 13, 3-{[6-(4-methoxyphenyl)pyridazin-3-yl]amino}-N-[(5-methylfuran-2-yl)methyl]benzamide]	< 30%	≥ 60%
Cc1ccc(CNC(=O)c2cccc(Nc3ncc(-c4ccc(C(=O)O)cc4)cn3)c2)o1 [Compound 109, 4-{2-[(3-{[(5-methylfuran-2-yl)methyl]carbamoyl}phenyl)amino]pyrimidin-5-yl}benzoic acid]	< 30%	–
Cc1ccc(CNC(=O)c2cccc(Nc3ccc(C#N)nn3)c2)o1 [Compound 107, 3-[(6-cyanopyridazin-3-yl)amino]-N-[(5-methylfuran-2-yl)methyl]benzamide]	< 30%	–
Cc1ccc(CNC(=O)c2cccc(Nc3ncc(-c4cccc(C(F)(F)F)c4)cn3)c2)o1 [Compound 99, N-[(5-methylfuran-2-yl)methyl]-3-({5-[3-(trifluoromethyl)phenyl]pyrimidin-2-yl}amino)benzamide]	30 to 60%	–

The next lines start with the values.

inhibition at 1 µM	inhibition at 30 µM	SMILES
30 to 60%	≥ 60%	O=C(NCc1ccc2c(c1)OCO2)c1cccc(Nc2ccc(-c3ccc(F)cc3)nn2)c1 [Compound A17]
–	30 to 60%	NC(=O)c1cccc(Nc2ccc(-c3ccccc3)nn2)c1 [Compound 17, 3-[(6-phenylpyridazin-3-yl)amino]benzamide]
–	< 30%	Cc1ccc(CNC(=O)c2ccc(Nc3ccc(-c4ccccc4)nn3)cc2)o1 [Compound 22, N-[(5-methylfuran-2-yl)methyl]-4-[(6-phenylpyridazin-3-yl)amino]benzamide]
< 30%	≥ 60%	O=C(NCC1CCOCC1)c1cccc(Nc2ccc(-c3ccccc3)nn2)c1 [Compound 34, N-[(oxan-4-yl)methyl]-3-[(6-phenylpyridazin-3-yl)amino]benzamide]
–	< 30%	Cc1ccc(-c2ccc(Nc3cccc(C(=O)NCc4ccc(Br)cc4)c3)nn2)cc1 [Compound A30]
< 30%	30 to 60%	O=C(NCCCN1CCOCC1)c1cccc(Nc2ccc(-c3ccccc3)nn2)c1 [Compound 15, N-[3-(morpholin-4-yl)propyl]-3-[(6-phenylpyridazin-3-yl)amino]benzamide]
< 30%	–	O=C(NCCc1ccccc1)c1cnc(Nc2ccc(-c3ccccc3)nn2)s1 [Compound 113, N-(2-phenylethyl)-2-[(6-phenylpyridazin-3-yl)amino]-1,3-thiazole-5-carboxamide]
< 30%	≥ 60%	Cc1ccc(-c2ccc(Nc3cccc(C(=O)NCc4ccc(C)o4)c3)nn2)cc1 [Compound A7]
< 30%	–	Cc1ccc(CNC(=O)c2cccc(Nc3ccc(C4CC4)nn3)c2)o1 [Compound 43, 3-[(6-cyclopropylpyridazin-3-yl)amino]-N-[(5-methylfuran-2-yl)methyl]benzamide]
< 30%	–	O=C(NCCN1CCCCC1)c1cccc(Nc2ccc(-c3ccccc3)nn2)c1 [Compound A90]
< 30%	–	Cc1ccc(CNC(=O)c2cccc(Nc3ccc(C4CCN(C)CC4)nn3)c2)o1 [Compound 70, N-[(5-methylfuran-2-yl)methyl]-3-{[6-(1-methylpiperidin-4-yl)pyridazin-3-yl]amino}benzamide]
< 30%	–	Cc1ccc(CNC(=O)c2cccc(Nc3ccc(CCc4ccccc4)nn3)c2)o1 [Compound 76, N-[(5-methylfuran-2-yl)methyl]-3-{[6-(2-phenylethyl)pyridazin-3-yl]amino}benzamide]
30 to 60%	≥ 60%	COc1ccc(OC)c(CNC(=O)c2cccc(Nc3ccc(-c4ccccc4)nn3)c2)c1 [Compound A60]
< 30%	≥ 60%	O=C(NCc1ccccn1)c1cccc(Nc2ccc(-c3ccccc3)nn2)c1 [Compound 19, 3-[(6-phenylpyridazin-3-yl)amino]-N-[(pyridin-2-yl)methyl]benzamide]
< 30%	–	Cc1ccc(CNC(=O)c2cccc(Nc3nccc(-c4ccccc4)n3)c2)o1 [Compound 89, N-[(5-methylfuran-2-yl)methyl]-3-[(4-phenylpyrimidin-2-yl)amino]benzamide]
